PMC11971462, “Generation and validation of a novel multitarget small molecule in glioblastoma” (Cell Death & Disease, 2025)
Values joined by “and” are separate entries in the source; they are usually repeats but may differ in a detail not shown here. Equal entries are not always repeated.

Columns and labels:
HDAC1 = HDAC1 (Homo sapiens, UniProt Q13547); test: HDAC1 enzyme inhibition; assay type: biochemical; details: read-out: HDAC inhibition IC50 HDAC1
Experimental: The inhibitory capacity of DDI199 on HDACs was studied as previously described. The capacity of DDI199 to inhibit MAOs was studied by mimicking the reaction occurring in cells. Briefly, inhibitor solution containing 10 µM of DDI199 or reference compound was incubated for 30 minutes at 37 °C together with the enzyme solution, containing either recombinant hMAO-A (Sigma-Aldrich) at 0.5 U/mL or hMAO-B (Sigma-Aldrich) at 1.5 U/mL. 200 U/mL horseradish peroxidase (Sigma-Aldrich), 20 mM Ampliflu Red (Sigma-Aldrich) and 100 mM tyramine hydrochloride (Sigma-Aldrich) were then added and absorbance at 570 nm was measured every 5 minutes for 30 minutes. Percentage of inhibition was estimated from these values.

[1] = test system: GNS166 patient-derived glioma stem cells; test: MTT cell viability; assay type: cell-based; details: Homo sapiens, 72 h
Experimental: (§1) MTT assay was used to study cell viability. For that, cells were seeded at a density of 1.5 × 10^3 cells/well in 96-well plates, incubated overnight and then treated with increasing concentrations of DDI199. After 72 h of treatment, MTT absorbance was measured at 570 nm. GraphPad Prism software was used to analyze results and calculate IC50 values.

[2] = test system: GNS179 patient-derived glioma stem cells; test: MTT cell viability; assay type: cell-based; details: Homo sapiens, 72 h
Experimental: as §1

[3] = test system: Normal Human Astrocytes (NHA); test: MTT cell viability; assay type: cell-based; details: Astrocyte, 72 h
Experimental: as §1

U251-MG glioma cells = test: MTT cell viability; assay type: cell-based; details: Homo sapiens, U-251, 72 h
Experimental: as §1

U87-MG glioma cells = test: MTT cell viability; assay type: cell-based; details: Homo sapiens, U-87 MG, 72 h
Experimental: as §1

[4] = test system: gastric cancer MKN45 cells; test: MTT cell viability; assay type: cell-based; details: Homo sapiens, MKN-45, 72 h
Experimental: as §1

[5] = test system: lung cancer NCI-H1299 cells; test: MTT cell viability; assay type: cell-based; details: Homo sapiens, 72 h
Experimental: as §1

[6] = test system: pancreatic cell line RWP1; test: MTT cell viability; assay type: cell-based; details: Homo sapiens, 72 h
Experimental: as §1

U87-MG tumors = test: Immunohistochemistry of subcutaneous tumors; assay type: in vivo, athymic nude-Foxn1nu mice
Experimental: Subcutaneous tumors were extracted, fixed with 4% formaldehyde for 48 h and embedded in paraffin. Tumor sections were obtained and stainings for acetyl H3 (9649, Cell Signaling), acetylated α-tubulin (ab179484, abcam), PCNA (Ab18197, abcam) and Cleaved Caspase 3 (AF835, R&D Systems) were performed. ZEISS Axioscan 7 slide scanner was used to capture images of the stainings and analyses were done using Qupath.

U87-MG cells [7] = test: Washout experiment after treatment; assay type: in vivo, athymic nude-Foxn1nu mice
Experimental: (§2) For tumor growth experiments, 5 × 10^5 U87-MG cells were subcutaneously injected into two bottom flanks of athymic nude-Foxn1^nu mice, and once tumors reached a size of 25-50 mm^3, mice were sorted into groups taking into account gender and tumor size. Afterwards, mice were intratumorally treated with vehicle, SAHA 100 µM or DDI199 100 µM following a schedule of 5 days on and 2 days off. In combined treatment, mice were treated intraperitoneally with 0.5 mg/Kg of TMZ for 5 days and intratumorally following a schedule of 5 days on and 2 days off with vehicle, SAHA 100 µM or DDI199 100 µM. After 4 weeks of treatment, some mice were kept for washout experiment, while the rest were sacrificed and tumors were extracted for immunohistochemistry and to disaggregate for reinjection and oncosphere formation studies. For reinjection assays, 1.5 × 10^5 cells were subcutaneously injected and tumor size was periodically measured. Once tumors reached end-point criteria, they were extracted for immunohistochemical analysis. An external caliper was used for tumor size measurement and the tumor volume was estimated using the formula V = L · W^2 · 0.5 (where L is tumor length and W is the tumor width).

U87-MG tumor cells = test: Oncosphere formation from disaggregated treated tumors; assay type: cell-based
Experimental: For oncosphere formation assay, cells were cultured in non-treated 48-well plates in DMEM/F12 medium supplemented with EGF and FGF and fresh media was added every 2 days. After 7 days, oncosphere formation was documented and the number of spheres was quantified using Qupath.
as §2, with “An external caliper was used for tumor size measurement and the tumor volume was estimated using the formula V = L · W^2 · 0.5 (where L is tumor length and W is the tumor width).” left out

U87-MG cells [8] = test: Cell viability with TMZ and DDI199 alone or combined; assay type: cell-based, human; details: 72 h
Experimental: as §1

U87-MG cells [9] = test: Subcutaneous U87-MG tumor growth, combined treatment with TMZ; assay type: in vivo, athymic nude-Foxn1nu mice
Experimental: as §2

GNS166 cells = test: q-RTPCR of selected DEGs; assay type: cell-based, human; details: GNS166 treated versus non-treated
Experimental: Total RNA was extracted using Trizol (Life Thechnologies). Reverse transcription was then performed with the Maxima First Strand cDNA Synthesis Kit (ThermoFisher), following manufacturer’s guidelines. Quantitative real-time PCR was carried out in a CFX384 Thermal Cycler (BioRad) by Absolute SYBR Green mix (ThermoFisher). GAPDH was used as housekeeping gene for the correction of variations on initial cDNA levels, and relative gene expression was determined using the 2^-ΔΔCt formula.

[10] = TMZ 0.5 mg/kg ip + DDI199 100 µM intratumoral

HDAC1, sequence (Q13547 whole entry): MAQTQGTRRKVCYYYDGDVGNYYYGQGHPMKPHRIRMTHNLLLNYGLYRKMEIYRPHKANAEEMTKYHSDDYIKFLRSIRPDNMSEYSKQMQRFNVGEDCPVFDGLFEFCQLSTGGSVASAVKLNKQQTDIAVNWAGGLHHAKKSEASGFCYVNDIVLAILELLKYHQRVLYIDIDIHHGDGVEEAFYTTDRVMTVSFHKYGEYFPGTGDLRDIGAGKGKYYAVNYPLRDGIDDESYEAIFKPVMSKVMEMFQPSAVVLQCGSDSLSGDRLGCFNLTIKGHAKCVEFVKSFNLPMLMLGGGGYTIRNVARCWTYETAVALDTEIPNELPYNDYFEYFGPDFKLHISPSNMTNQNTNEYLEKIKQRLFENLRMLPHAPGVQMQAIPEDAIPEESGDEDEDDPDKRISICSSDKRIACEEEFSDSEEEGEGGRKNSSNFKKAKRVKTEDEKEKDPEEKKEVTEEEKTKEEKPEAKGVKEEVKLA

C#CCN(Cc1cc2cc(OCCCN3CCCCC3)ccc2n1S(=O)(=O)c1ccccc1)C(=O)CCCCCCC(=O)NO [DDI199]
IC50 (HDAC1): 377 nM and 370 nM | IC50 [1]: 13 µM | IC50 [2]: 5.28 µM | IC50 [3]: 7 µM | IC50 (U251-MG glioma cells): 5.45 µM | IC50 (U87-MG glioma cells): 3.23 µM | IC50 [4]: 2610 nM | IC50 [5]: 3.33 µM | IC50 [6]: 880 nM | acetyl H3 immunohistochemical staining (U87-MG tumors; tumors at day 34, 100 µM intratumoral): 83% | acetyl α-tubulin immunohistochemical staining (U87-MG tumors; tumors at day 34, control 0.25): 0.32 | Cleaved Caspase 3 positive cells (U87-MG tumors; tumors at day 34, control 0.7%): 1.5% | PCNA positive cells (U87-MG tumors; tumors at day 34, control 70%): 64% | Survival in washout experiment, combined with TMZ (U87-MG cells [7]; TMZ + DDI199 versus control, TMZ alone and TMZ plus SAHA): extended survival | Time to end-point volume after washout (U87-MG cells [7]; after 4 weeks treatment, controls 10 days): 20 days | Survival in washout experiment (U87-MG cells [7]; compared to controls and SAHA (p = 0.05)): significantly longer survival | Oncospheres formed by cells from treated tumors (U87-MG tumor cells; GSC medium, 7 days): fewer oncospheres | Oncospheres from treated tumors, combined with TMZ (U87-MG tumor cells; TMZ plus DDI199 versus control and TMZ-treated cells): significantly lower number of oncospheres | Cytotoxicity in combination with TMZ (U87-MG cells [8]; 0.5 µM DDI199 + 250 µM TMZ): over 70% | Cell viability, single agent (U87-MG cells [8]; 250 µM TMZ or 0.5 µM DDI199 alone): reduced cell viability | Mean tumor volume, combined with TMZ (U87-MG cells [9]; TMZ 0.5 mg/kg ip 5 days + 100 µM intratumoral, end-point, controls 600 mm^3): 115 mm^3 | Reduction in final tumor volume versus TMZ + SAHA, combined with TMZ (U87-MG cells [9]; [10]): ~70% | Reduction in final tumor volume versus controls, combined with TMZ (U87-MG cells [9]; [10]): 80% | Reduction in tumor volume versus TMZ alone, combined with TMZ (U87-MG cells [9]; [10]): 70% | Reduction in tumor weight versus TMZ + SAHA, combined with TMZ (U87-MG cells [9]; [10]): 47% | Reduction in tumor weight versus TMZ alone, combined with TMZ (U87-MG cells [9]; [10]): 65% | Reduction in tumor weight versus controls, combined with TMZ (U87-MG cells [9]; [10]): 65% | Expression of genes associated to neurotransmission/synapsis (q-RTPCR) (GNS166 cells): significantly higher | Expression of genes associated with cell cycle and DNA remodeling (q-RTPCR) (GNS166 cells): significantly reduced
